Measured values from patent publication US9550796B2, “Pyrrolopyrrolone derivatives and their use as BET inhibitors” (NOVARTIS AG, priority 2013, dated 2017).

Columns and labels:
[1] = target: BRD4 (Homo sapiens (Human), UniProt O60885); test: TR-FRET in-vitro binding assay for BRD4; conditions: 45 nM His-Brd4(44-477), acetyl-histone H4 (AcK 5, 8, 12, 16) peptide
How it was run: (§1)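 TR-FRET binding read after 35 min incubation at 30° C. Compounds dispensed from 90% DMSO solutions and tested at 8 concentrations in a 13.55 μL total reaction volume.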

[2] = target: BRD3 (Homo sapiens (Human), UniProt Q15059); test: TR-FRET in-vitro binding assay for BRD3; conditions: 45 nM His-Brd3(20-477), acetyl-histone H4 (AcK 5, 8, 12, 16) peptide
How it was run: as §1

[3] = target: CREBBP (Homo sapiens (Human), UniProt Q92793); test: AlphaScreen in-vitro binding assay for CREBBP; conditions: 324 nM His-CREBBP (1081-1197), acetyl-histone H4 (AcK 5, 8, 12) peptide
How it was run: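 IC50 values were derived by non-linear regression of percent inhibition across 8 compound concentrations. Protein was His-tagged CREBBP bromodomain (1081-1197), peptide acetyl-histone H4 (AcK 5, 8, 12), in HEPES pH 7.5 buffer. Read-out was AlphaScreen with Ni-chelate acceptor and streptavidin donor beads, 35 min at 30° C then 60 min at RT.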

[4] = system: MV-4-11; test: Cell growth inhibition assay (CellTiter-Glo), MV-4-11; type: cell-based, human; conditions: MV-4-11 cells, 4 days; for GI50: Homo sapiens, MV4-11, 96 h, half-maximal growth inhibition; for MV-4-11 TGI: total growth inhibition
How it was run: (§2)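 Cells were treated with 3-fold serial dilutions of compound starting at 10 μM for 4 days at 37 °C and 5% CO2, and viability was then read as ATP by CellTiter-Glo luminescence. Signals were background- and day 0-corrected against 0.1% DMSO vehicle (100%) and medium (−100%). IC50 and TGI came from four-parameter fits.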

[5] = system: THP-1; test: Cell growth inhibition assay (CellTiter-Glo), THP-1; type: cell-based, human; conditions: THP-1 cells, 4 days; for GI50: Homo sapiens, 96 h, half-maximal growth inhibition; for THP-1 TGI: total growth inhibition
How it was run: as §2

[6] = system: K-562; test: Cell growth inhibition assay (CellTiter-Glo), K-562; type: cell-based, human; conditions: K-562 cells, 4 days; for GI50: Homo sapiens, K562, 96 h, half-maximal growth inhibition; for K-562 TGI: total growth inhibition
How it was run: as §2

Chain of CREBBP (Q92793 1081-1197): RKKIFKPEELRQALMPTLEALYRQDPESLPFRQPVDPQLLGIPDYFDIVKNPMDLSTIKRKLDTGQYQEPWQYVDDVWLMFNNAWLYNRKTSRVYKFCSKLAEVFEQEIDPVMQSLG
Chain of BRD3 (Q15059 20-477): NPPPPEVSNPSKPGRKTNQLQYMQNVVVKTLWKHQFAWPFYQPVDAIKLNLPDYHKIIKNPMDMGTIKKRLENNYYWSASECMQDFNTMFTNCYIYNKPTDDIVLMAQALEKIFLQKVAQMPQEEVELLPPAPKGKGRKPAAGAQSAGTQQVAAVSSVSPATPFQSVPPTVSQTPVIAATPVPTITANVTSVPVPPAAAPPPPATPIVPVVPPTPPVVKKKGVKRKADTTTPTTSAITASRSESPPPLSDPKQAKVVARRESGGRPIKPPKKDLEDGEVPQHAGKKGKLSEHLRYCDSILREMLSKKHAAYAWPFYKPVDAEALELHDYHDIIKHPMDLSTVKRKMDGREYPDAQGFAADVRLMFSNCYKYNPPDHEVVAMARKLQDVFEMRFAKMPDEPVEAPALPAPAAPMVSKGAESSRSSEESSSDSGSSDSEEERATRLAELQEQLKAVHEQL

Compound | IC50 [1] [µM] | IC50 [2] [µM] | IC50 [3] [µM] | GI50 [4] [µM] | GI50 [5] [µM] | GI50 [6] [µM] | MV-4-11 TGI [4] [µM] | THP-1 TGI [5] [µM] | K-562 TGI [6] [µM]
CNC(=O)Cn1cc(C)c2c1C(c1ccc(Cl)cc1)N(c1cc(C)c3nnc(C)n3c1)C2=O (stereo not drawn) [Example 127, 2-(6-(4-chlorophenyl)-5-(3,8-dimethyl-[1,2,4]triazolo[4,3-a]pyridin-6-yl)-3-methyl-4-oxo-5,6-dihydropyrrolo[3,4-b]pyrrol-1(4H)-yl)-N-methylacetamide] | 0.085 | 0.081 | 7.5 | 0.413 | 0.824 | 2.32 | 0.64 | 1.129 | >10
Cc1cc(N2C(=O)c3c(NC(=O)CCN(C)C)cn(C)c3C2c2ccc(Cl)cc2)nn2c(C(F)F)nnc12 (stereo not drawn) [Example 110, N-(6-(4-chlorophenyl)-5-(3-(difluoromethyl)-8-methyl-[1,2,4]triazolo[4,3-b]pyridazin-6-yl)-1-methyl-4-oxo-1,4,5,6-tetrahydropyrrolo[3,4-b]pyrrol-3-yl)-3-(dimethylamino)propanamide] | 0.03 | 0.037 | > 37 | 0.01 | 0.257 | 0.211 | 0.0255 | 0.2935 | 5.64
Cc1cn(C2CCN(C)C2=O)c2c1C(=O)N(c1cc(C)c3nnc(C)n3c1)C2c1ccc(Cl)cc1 (stereo not drawn) [Example 126, 6-(4-chlorophenyl)-5-(3,8-dimethyl-[1,2,4]triazolo[4,3-a]pyridin-6-yl)-3-methyl-1-(1-methyl-2-oxopyrrolidin-3-yl)-5,6-dihydropyrrolo[3,4-b]pyrrol-4(1H)-one] | 0.043 | 0.048 | 12.9 | 0.0746 | 0.113 | 0.629 | 0.18 | 0.3155 | >10
CC(=O)Nc1cn(C)c2c1C(=O)N(c1cc(C)c3nnc(C(F)F)n3c1)C2c1ccc(Cl)cc1 (stereo not drawn) [Example 133, N-(6-(4-chlorophenyl)-5-(3-(difluoromethyl)-8-methyl-[1,2,4]triazolo[4,3-a]pyridin-6-yl)-1-methyl-4-oxo-1,4,5,6-tetrahydropyrrolo[3,4-b]pyrrol-3-yl)acetamide] | 0.029 | 0.032 | 13.9 | 0.0246 | 0.03 | 0.0927 | 0.0497 | 0.07425 | >10
Cc1cc(N2C(=O)c3c(NC(=O)CN(C)C)cn(C)c3C2c2ccc(Cl)cc2)cn2c(C)nnc12 (stereo not drawn) [Example 116, N-(6-(4-chlorophenyl)-5-(3,8-dimethyl-[1,2,4]triazolo[4,3-a]pyridin-6-yl)-1-methyl-4-oxo-1,4,5,6-tetrahydropyrrolo[3,4-b]pyrrol-3-yl)-2-(dimethylamino)acetamide] | 0.026 | 0.034 | 4.2 | 0.0377 | 0.0595 | 0.288 | 0.08745 | 0.123 | >10

Stronger by IC50 [1], values ahead:

IC50 [1] [µM] | IC50 [2] [µM] | IC50 [3] [µM] | GI50 [4] [µM] | GI50 [5] [µM] | GI50 [6] [µM] | Compound | MV-4-11 TGI [4] [µM] | THP-1 TGI [5] [µM] | K-562 TGI [6] [µM]
0.017 | 0.021 | 27.9 | 0.0072 | 0.0154 | 0.197 | Cc1cn(C)c2c1C(=O)N(c1cc(C)c3nnc(C(F)F)n3c1)C2c1ccc(Cl)cc1 (stereo not drawn) [Example 107, 6-(4-chlorophenyl)-5-(3-(difluoromethyl)-8-methyl-[1,2,4]triazolo[4,3-a]pyridin-6-yl)-1,3-dimethyl-5,6-dihydropyrrolo[3,4-b]pyrrol-4(1H)-one] | 0.02295 | 0.022 | >10
< 0.011 | 0.013 | 0.59 | 0.01 | 0.0111 | 0.0311 | Cc1cc(N2C(=O)c3cc(C4=CCOCC4)n(C)c3C2c2ccc(Cl)cc2)cn2c(C)nnc12 (stereo in doubt) [Example 137, (R)-6-(4-chlorophenyl)-2-(3,6-dihydro-2H-pyran-4-yl)-5-(3,8-dimethyl-[1,2,4]triazolo[4,3-a]pyridin-6-yl)-1-methyl-5,6-dihydropyrrolo[3,4-b]pyrrol-4(1H)-one] | 0.01875 | 0.02275 | >10
< 0.011 | 0.011 | 2.8 | 0.00514 | 0.00603 | 0.0376 | CCOC(=O)n1c(C2=CCOCC2)c(C)c2c1C(c1ccc(Cl)cc1)N(c1cc(C)c3nnc(C)n3c1)C2=O (stereo not drawn) [Example 123, Ethyl 6-(4-chlorophenyl)-2-(3,6-dihydro-2H-pyran-4-yl)-5-(3,8-dimethyl-[1,2,4]triazolo[4,3-a]pyridin-6-yl)-3-methyl-4-oxo-5,6-dihydropyrrolo[3,4-b]pyrrole-1(4H)-carboxylate] | 0.009695 | 0.0135 | >10
< 0.011 | < 0.011 | 1.7 | 0.00124 | 0.00157 | 0.0117 | Cc1cc(N2C(=O)c3c(C4CC4)c(C4=CCOCC4)n(C)c3C2c2ccc(Cl)cc2)cn2c(C)nnc12 (stereo not drawn) [Example 119, 6-(4-chlorophenyl)-3-cyclopropyl-2-(3,6-dihydro-2H-pyran-4-yl)-5-(3,8-dimethyl-[1,2,4]triazolo[4,3-a]pyridin-6-yl)-1-methyl-5,6-dihydropyrrolo[3,4-b]pyrrol-4(1H)-one] | 0.00376 | 0.003665 | 3.74
0.012 | 0.013 | 12.8 | < 0.003 | 0.0129 | 0.0764 | Cc1cc(N2C(=O)c3c(C4CNC4)cn(C)c3C2c2ccc(Cl)cc2)nc2c1nnn2C (stereo not drawn) [Example 130, 3-(azetidin-3-yl)-6-(4-chlorophenyl)-5-(3,7-dimethyl-3H-[1,2,3]triazolo[4,5-b]pyridin-5-yl)-1-methyl-5,6-dihydropyrrolo[3,4-b]pyrrol-4(1H)-one] | 0.00621 | 0.031 | 3.5
0.012 | 0.015 | 4.5 | 0.00911 | 0.00604 | 0.041 | Cc1cc(N2C(=O)c3c(C4CC4)c(C)n(C)c3C2c2ccc(Cl)cc2)cn2c(C)nnc12 (stereo not drawn) [Example 122, 6-(4-chlorophenyl)-3-cyclopropyl-5-(3,8-dimethyl-[1,2,4]triazolo[4,3-a]pyridin-6-yl)-1,2-dimethyl-5,6-dihydropyrrolo[3,4-b]pyrrol-4(1H)-one] | 0.01297 | 0.01193 | >7
< 0.011 | < 0.011 | 1.6 | 0.00302 | 0.00367 | 0.0254 | COc1ncccc1-c1c(C2CC2)c2c(n1C)C(c1ccc(Cl)cc1)N(c1cc(C)c3nnc(C)n3c1)C2=O (stereo not drawn) [Example 120, 6-(4-chlorophenyl)-3-cyclopropyl-5-(3,8-dimethyl-[1,2,4]triazolo[4,3-a]pyridin-6-yl)-2-(2-methoxypyridin-3-yl)-1-methyl-5,6-dihydropyrrolo[3,4-b]pyrrol-4(1H)-one] | 0.005053 | 0.005503 | >7
